Test results reported in article PMC6480424, “Hydrophobic Amines and Their Guanidine Analogues Modulate Activation and Desensitization of ASIC3” (International Journal of Molecular Sciences, 2019).
Blank lines part the entries; values can stand above or below the compound they belong to.

Key:
Type in all cases: cell-based
[1] = molecular target: T1, ASIC3 (acid-sensing ion channel 3) (Rattus norvegicus, UniProt O35240); test: whole-cell patch clamp, peak inhibition and sustained potentiation, on/tail currents
T1 construct: homomeric rat ASIC3 expressed in CHO cells
T1 sequence (O35240 1-533): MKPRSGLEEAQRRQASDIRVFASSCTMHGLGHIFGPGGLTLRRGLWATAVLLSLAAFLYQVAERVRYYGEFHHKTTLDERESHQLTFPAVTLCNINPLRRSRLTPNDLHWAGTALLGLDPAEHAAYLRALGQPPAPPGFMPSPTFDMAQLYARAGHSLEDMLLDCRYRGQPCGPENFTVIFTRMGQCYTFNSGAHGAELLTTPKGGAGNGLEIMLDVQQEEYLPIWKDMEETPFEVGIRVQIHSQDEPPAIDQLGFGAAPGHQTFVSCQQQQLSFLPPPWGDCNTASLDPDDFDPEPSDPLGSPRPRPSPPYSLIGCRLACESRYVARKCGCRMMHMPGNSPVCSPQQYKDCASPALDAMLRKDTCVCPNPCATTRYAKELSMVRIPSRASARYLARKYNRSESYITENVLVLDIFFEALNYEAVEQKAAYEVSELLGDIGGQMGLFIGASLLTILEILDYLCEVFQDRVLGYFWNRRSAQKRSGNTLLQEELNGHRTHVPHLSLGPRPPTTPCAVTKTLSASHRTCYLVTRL

[2] = molecular target: T1, ASIC3 (acid-sensing ion channel 3); test: whole-cell patch clamp, sustained current potentiation by […] at pH […]; details: read-out: % potentiation at 0.5 mM
[3] = molecular target: T1, ASIC3 (acid-sensing ion channel 3); test: whole-cell patch clamp, sustained current inhibition by […] at pH […]; details: read-out: % inhibition at 0.5 mM
[4] = molecular target: T1, ASIC3 (acid-sensing ion channel 3); test: whole-cell patch clamp, sustained current inhibition at pH […]
[5] = molecular target: T1, ASIC3 (acid-sensing ion channel 3); test: whole-cell patch clamp, peak current inhibition at pH […]
[6] = molecular target: T1, ASIC3 (acid-sensing ion channel 3); test: whole-cell patch clamp at […], acidic shift of activation

SMILES: Nc1c2ccccc2nc2ccccc12 [9AA, 9-aminoacridine]
whole-cell patch clamp, peak inhibition and sustained potentiation, on/tail curr [1]: 9-Aminoacridine and IEM-2044, which inhibit peak and potentiate the sustained component of the response

SMILES: NCCC1(c2ccccc2)CCCCC1 [IEM-2044]
whole-cell patch clamp, peak inhibition and sustained potentiation, on/tail curr [1]: 9-Aminoacridine and IEM-2044, which inhibit peak and potentiate the sustained component of the response

SMILES: NC1c2ccccc2-c2ccccc21 [IEM-2117]
activation at 500 µM [2]: 498 ± 196%

SMILES: CN(C)CCC=C1c2ccccc2CCc2ccccc21 [amitriptyline]
whole-cell patch clamp at 500 μM, acidic shift of activation [6]: IEM-2044 and amitriptyline have opposite effects on different channels, inducing an alkaline shift of activation on ASIC1a

Continued, values first:

inhibition at 500 µM [3]: 29 ± 4%
SMILES: N=C(N)NC12CC3CC(CC(C3)C1)C2 [IEM-2151]

IC50 [4]: 117 ± 5.6 µM
SMILES: CC12CC3CC(C)(C1)CC(NC(=N)N)(C3)C2 [IEM-2163]

IC50 [5]: 21 ± 15 µM
SMILES: N=C(N)NCCC1(c2ccccc2)CCCCC1 [IEM-2195]
